Test results from patent US7605168B2 (Plexxikon, Inc., priority 2004, dated 2009).

What was measured:
[1] = biological target: T1, PDE4B2: full-length human PDE4B2 isozyme (Homo sapiens, UniProt Q07343); assay: PDE4 IC50 determination by Scintillation Proximity Assay (SPA), full-length PDE4B2; type: biochemical; details: cell lysate, [3H]cAMP SPA
T1 construct: made in house; host or cells: baculovirus infected insect cells (pFastBacHT)
In short: (§1)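 Unpurified enzyme from cell lysates (PDE4B2 2.5 μl, PDE4D5 0.083 μl of 50% glycerol stock/ml) hydrolysing [3H]cAMP in 50 mM Tris pH 7.5, 8.3 mM MgCl, 1.7 mM EGTA, 0.01% BSA, 30 min at 30 °C. Stopped with yttrium silicate SPA beads in 18 mM ZnSO4; bead-bound [3H]AMP counted. IC50 by non-linear regression.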

[2] = biological target: T2, PDE4B: catalytic domain of human PDE4B from S152-S528 (Homo sapiens, UniProt Q07343); assay: PDE4 IC50 determination by Scintillation Proximity Assay (SPA), PDE4B catalytic domain; type: biochemical; details: [3H]cAMP SPA, 30 min at 30° C.
T2 construct: The catalytic domain of human PDE4B from S152-S528; His6 (N, cleaved yes); thrombin cleavage site (N, cleaved yes); made in house; host or cells: E. coli BL21 (DE3) RIL
Protocol: IC50s were determined by Scintillation Proximity Assay (SPA). The principle of the assay is based on the fact that cAMP, the PDE4 substrate, binds weakly to Yittrium Silicate SPA beads, whereas AMP, the product of PDE4 hydrolysis binds strongly. Thus, the extent of PDE4 hydrolysis of a sample of [^3H]cAMP can be measured because only the [^3H]AMP produced by PDE4 hydrolysis will bind to the SPA beads and produce a scintillation signal.
Enzyme was stored in 50% glycerol at −20°.
In addition to the compound dilutions, each assay plate contained control wells with 1 μl of DMSO (to define 0% enzyme inhibition) or 1 μl of 200 μM roflumilast (to define 100% enzyme inhibition). Using a Beckman FX robot, 10 μl of [^3H] cAMP (Amersham TRK559) at […] in assay buffer (50 mM Tris, pH 7.5; 8.3 mM MgCl; 1.7 mM EGTA; 0.01% BSA) was transferred to each assay well. Next, 10 μl of PDE4 enzyme in assay buffer was added and the plates were shaken for 30 s. at 1000 rpm to start the cAMP hydrolysis reaction. The concentrations of enzyme used were: PDE4B, 80 ng/ml; PDE4D, 4 ng/ml; PDE4B2, 2.5 μl of 50% glycerol stock/ml; PDE4D5 0.083 μl of 50% glycerol stock/ml. Assay plates were covered and incubated for 30 min. at 30° C. Reactions were stopped by robotic addition of 10 μl of 5 mg/ml SPA beads (Amersham RPNQ0013) in 18 mM ZnSO4. The assay plates were covered with clear plastic film, centrifuged for 1 min. at 1000 RPM to settle the SPA beads, and counted using a Wallac TriLux scintillation counter. IC50's were calculated from the raw assay data by non-linear regression curve fitting using the Assay Explorer software package from MDL.

[3] = tested on: TNF-α release from whole blood cultures stimulated with LPS; assay: IC50 by TNF alpha production upon stimulation of whole blood cultures with LPS; type: cell-based; details: human whole blood (buffy coat) culture, 100 ng/ml LPS, 4 hours; read-out: h TNFα IC50
Protocol: Compounds were assayed to generate IC50 numbers based on the inhibition of TNF-α release from whole blood cultures, using the following assay protocol (see Table 5 for compounds tested and results). Inhibition of PDE4B results in the inhibition of TNF-α release by whole blood cultures stimulated with lipopolysaccharide (LPS). The measurement of TNF-α release was used to assess compounds as PDE4B inhibitors.
Compounds were provided in DMSO at 20 mM and 2 μl per well was added to one row of a dilution plate. Added 98 μl of RPMI 1640 media with 2.5% heat inactivated FBS to each well containing compound. The same media with 2% DMSO was prepared and 60 μl was added to each of the empty wells in the dilution plate. The compound was serially diluted 1:3 (30 μl to 60 μl of media) for a total of 8 concentrations per compound. Wells were also prepared with 50 μM roflumilast and piclamilast as 100% inhibition controls, and 2% DMSO in media was used as 0% inhibition control. A 20 μl aliquot of each sample was transferred to an assay plate in duplicate.
Human buffy coat was obtained from the Stanford Medical School Blood Center and diluted with 7 volumes of RPMI 1640 media with 1% penicillin/streptomycin and 2.5% heat inactivated FBS. A 160 μl aliquot of the diluted blood was added to each well of the assay plates, mixed and incubated for 1 hour at 37° C. in 5% CO2. LPS (Sigma catalog number L2637) that had been diluted to 1 mg/ml in PBS and stored as 20 μl aliquots at −20° C. was thawed and diluted 1000× to 1 μg/ml. A 20 μl aliquot of this was added to each sample (final concentration 100 ng/ml LPS) after the 1 hour incubation. A background sample was prepared without addition of LPS as well. The samples were mixed on a shaker for one minute at 900 RPM and incubated for 4 hours at 37° C. in 5% CO2. The plates were then put on a shaker for one minute at 900 RPM, followed by centrifuging at 100×g for 10 minutes, deceleration setting of 5. The top 75 μl of supernatant was carefully pipetted to a new plate and frozen at −20° C.
A 50 μl aliquot of incubation buffer (Biosource International Immunoassay Kit:Human TNF-α catalog number KHC3011) was added to each well of a plate coated with monoclonal antibody specific for hTNF-α (Biosource kit). The supernatant blood samples were thawed and a 50 μl aliquot along with 50 μl of diluent buffer (Biosource kit) were added to incubation buffer and the samples were incubated for 2 hours at room temperature. The samples were washed 4 times with 300 μl/well wash buffer (Biosource kit). A 100 μl aliquot of biotinylated anti-TNFalpha (Biosource kit) was added and the samples incubated for 1 hour at room temperature. The samples were washed 4 times with 300 μl/well wash buffer. A 100 μl aliquot of Streptavidin-HRP solution (BioSource kit) was added and the samples incubated for 30 minutes at room temperature. The samples were washed 4 times with 300 μl/well wash buffer. A 100 μl aliquot of Chromagen (Biosource kit) was added and the samples incubated in the dark for 30 minutes. A 100 μl aliquot of stop solution (2N H2SO4) was added to each sample and samples were read at 450 nm on a WallacVictor for 0.1 sec/well.

[4] = biological target: T3, PDE4D5: full-length human PDE4D5 isozyme (Homo sapiens, UniProt Q08499); assay: PDE4 IC50 determination by Scintillation Proximity Assay (SPA), full-length PDE4D5; type: biochemical; details: cell lysate, [3H]cAMP SPA
T3 construct: made in house; host or cells: baculovirus infected insect cells (pFastBacHT)
In short: as §1

T3 sequence (Q08499 with tags, fused parts or gaps isoform Q08499-6): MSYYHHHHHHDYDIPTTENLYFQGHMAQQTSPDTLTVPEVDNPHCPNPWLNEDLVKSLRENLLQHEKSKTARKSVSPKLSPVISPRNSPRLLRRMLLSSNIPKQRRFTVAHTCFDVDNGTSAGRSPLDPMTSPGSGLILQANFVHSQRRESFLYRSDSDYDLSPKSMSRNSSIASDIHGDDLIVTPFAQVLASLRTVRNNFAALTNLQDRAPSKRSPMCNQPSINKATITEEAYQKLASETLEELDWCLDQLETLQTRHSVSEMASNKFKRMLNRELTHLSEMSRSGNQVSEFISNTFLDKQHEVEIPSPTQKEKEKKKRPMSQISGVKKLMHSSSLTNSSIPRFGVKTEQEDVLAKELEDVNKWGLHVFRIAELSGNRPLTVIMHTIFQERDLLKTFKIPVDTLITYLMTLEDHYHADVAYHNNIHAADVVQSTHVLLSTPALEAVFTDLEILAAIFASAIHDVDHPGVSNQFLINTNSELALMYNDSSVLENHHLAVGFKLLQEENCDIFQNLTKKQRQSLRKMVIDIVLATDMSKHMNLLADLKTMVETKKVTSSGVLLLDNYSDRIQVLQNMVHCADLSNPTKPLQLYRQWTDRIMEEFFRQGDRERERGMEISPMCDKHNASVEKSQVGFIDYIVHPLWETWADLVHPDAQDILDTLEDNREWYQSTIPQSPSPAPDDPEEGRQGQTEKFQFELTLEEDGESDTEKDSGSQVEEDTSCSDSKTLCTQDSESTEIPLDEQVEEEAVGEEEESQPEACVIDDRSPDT
T2 sequence (Q07343 324-700): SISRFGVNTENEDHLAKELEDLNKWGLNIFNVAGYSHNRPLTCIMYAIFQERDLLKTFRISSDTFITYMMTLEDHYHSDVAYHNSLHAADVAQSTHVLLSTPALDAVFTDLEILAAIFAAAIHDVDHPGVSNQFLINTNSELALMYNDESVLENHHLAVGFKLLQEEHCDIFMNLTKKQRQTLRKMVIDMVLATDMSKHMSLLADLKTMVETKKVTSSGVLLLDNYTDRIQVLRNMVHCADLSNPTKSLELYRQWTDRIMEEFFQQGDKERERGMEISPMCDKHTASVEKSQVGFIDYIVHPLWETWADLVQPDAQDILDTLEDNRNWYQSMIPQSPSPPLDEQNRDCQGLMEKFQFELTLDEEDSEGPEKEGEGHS
T1 sequence (Q07343 with tags, fused parts or gaps isoform Q07343-2): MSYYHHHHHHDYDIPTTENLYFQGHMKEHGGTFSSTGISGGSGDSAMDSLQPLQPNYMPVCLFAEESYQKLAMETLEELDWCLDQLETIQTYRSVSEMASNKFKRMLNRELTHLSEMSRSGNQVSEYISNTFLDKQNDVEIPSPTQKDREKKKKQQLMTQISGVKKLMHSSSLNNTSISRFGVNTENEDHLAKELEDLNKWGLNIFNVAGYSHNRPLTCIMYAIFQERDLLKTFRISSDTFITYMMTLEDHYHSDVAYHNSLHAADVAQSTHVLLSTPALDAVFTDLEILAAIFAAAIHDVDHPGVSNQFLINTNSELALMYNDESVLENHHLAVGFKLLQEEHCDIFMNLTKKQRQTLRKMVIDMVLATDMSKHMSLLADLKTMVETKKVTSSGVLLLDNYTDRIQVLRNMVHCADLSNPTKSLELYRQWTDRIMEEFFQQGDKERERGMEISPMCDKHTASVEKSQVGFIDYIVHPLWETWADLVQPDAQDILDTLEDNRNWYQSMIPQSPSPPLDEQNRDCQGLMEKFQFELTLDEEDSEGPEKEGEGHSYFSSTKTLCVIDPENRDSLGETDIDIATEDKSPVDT

IC50 [1] [µM]	IC50 [2] [µM]	IC50 [3] [µM]	IC50 [4] [µM]	SMILES
< 10	< 10	≤ 10	< 10	COc1ccc(-c2cn(Cc3c(C)ccc4ccccc34)c3ncccc23)cc1OC [Compound 76, 3-(3,4-Dimethoxy-phenyl)-1-(2-methyl-naphthalen-1-ylmethyl)-1H-pyrrolo[2,3-b]pyridine]
< 10	< 10	≤ 10	< 10	COc1ccc(-c2cn(Cc3ccc(C#N)cc3)c3ncccc23)cc1OC [Compound 77, 4-[3-(3,4-Dimethoxy-phenyl)-pyrrolo[2,3-b]pyridin-1-ylmethyl]-benzonitrile]
< 10	< 10	≤ 10	< 10	COc1ccc(-c2cn(Cc3ccccc3-c3ccccc3)c3ncccc23)cc1OC [Compound 78, 1-Biphenyl-2-ylmethyl-3-(3,4-dimethoxy-phenyl)-1H-pyrrolo[2,3-b]pyridine]
< 10	< 10	≤ 10	< 10	COc1ccc(-c2cn(Cc3cccc(C(F)(F)F)c3)c3ncccc23)cc1OC [Compound 79, 3-(3,4-Dimethoxy-phenyl)-1-(3-trifluoromethyl-benzyl)-1H-pyrrolo[2,3-b]pyridine]
< 10	< 10	> 10	< 10	CCOc1ccc2ccccc2c1C(=O)n1ccc2cc(-c3ccc(OC)c(OC)c3)cnc21 [Compound 80, [5-(3,4-Dimethoxy-phenyl)-pyrrolo[2,3-b]pyridin-1-yl]-(2-ethoxy-naphthalen-1-yl)-methanone]
< 10	< 10	≤ 10	< 10	COc1ccc(-c2cnc3[nH]ccc3c2)cc1OC [Compound 82, 5-(3,4-Dimethoxy-phenyl)-1H-pyrrolo[2,3-b]pyridine]

The remaining lines, values behind:

SMILES	IC50 [1] [µM]	IC50 [2] [µM]	IC50 [3] [µM]	IC50 [4] [µM]
CCOc1cc([N+](=O)[O-])ccc1C(=O)n1cc(-c2ccc(OC)c(OC)c2)c2cccnc21 [Compound 54, [3-(3,4-Dimethoxy-phenyl)-pyrrolo[2,3-b]pyridin-1-yl]-(2-ethoxy-4-nitro-phenyl)-methanone]	< 10	< 10	> 10	< 10
COc1ccc(-c2cn(C(=O)c3ccccc3)c3ncccc23)cc1OC [Compound 55, [3-(3,4-Dimethoxy-phenyl)-pyrrolo[2,3-b]pyridin-1-yl]phenylmethanone-amide]	< 10	< 10	≤ 10	< 10
COc1ccc(-c2cn(C(=O)c3cnccc3C(F)(F)F)c3ncccc23)cc1OC [Compound 57, [3-(3,4-Dimethoxy-phenyl)-pyrrolo[2,3-b]pyridin-1-yl]-(4-trifluoromethypyridn-3-yl)-methanone-amide]	< 10	< 10	> 10	< 10
COc1ccc(-c2cn(C(=O)c3cccc4ccccc34)c3ncccc23)cc1OC [Compound 58, [3-(3,4-Dimethoxy-phenyl)-pyrrolo[2,3-b]pyridin-1-yl]-(1-naphthyl)-methanone-amide]	< 10	< 10	≤ 10	< 10
COc1ccc(-c2cn(C(=O)c3cccnc3Cl)c3ncccc23)cc1OC [Compound 59, [3-(3,4-Dimethoxy-phenyl)-pyrrolo[2,3-b]pyridin-1-yl]-(2-chloropyridin-3-yl)-methanone-amide]	< 10	< 10	≤ 10	< 10
COc1ccc(-c2cn(C(C)=O)c3ncccc23)cc1OC [Compound 67, 1-[3-(3,4-Dimethoxy-phenyl)-pyrrolo[2,3-b]pyridin-1-yl]-ethanone]	< 10	< 10	≤ 10	< 10
COc1ccc(-c2cn(C(=O)c3ccccc3OC)c3ncccc23)cc1OC [Compound 68, [3-(3,4-Dimethoxy-phenyl)-pyrrolo[2,3-b]pyridin-1-yl]-(2-methoxyphenyl)-methanone]	< 10	< 10	≤ 10	< 10
COc1ccc(-c2cn(S(=O)(=O)c3ccc(-c4cnco4)cc3)c3ncccc23)cc1OC [Compound 70, 3-(3,4-Dimethoxy-phenyl)-1-(4-oxazol-5-yl-benzenesulfonyl)-1H-pyrrolo[2,3-b]pyridine]	< 10	< 10	≤ 10	< 10
COc1ccc(-c2cn(S(=O)(=O)c3cccc(-c4cnco4)c3)c3ncccc23)cc1OC [Compound 72, 3-(3,4-Dimethoxy-phenyl)-1-(3-oxazol-5-yl-benzenesulfonyl)-1H-pyrrolo[2,3-b]pyridine]	< 10	< 10	≤ 10	< 10
COc1ccc(-c2cn(S(=O)(=O)c3ccc(-c4nnc(C)o4)cc3)c3ncccc23)cc1OC [Compound 73, 3-(3,4-Dimethoxy-phenyl)-1-[4-(5-methyl-[1,3,4]oxadiazol-2-yl)-benzenesulfonyl]-1H-pyrrolo[2,3-b]pyridine]	< 10	< 10	≤ 10	< 10
COc1ccc(-c2cn(Cc3ccccc3CS(=O)(=O)c3ccccc3)c3ncccc23)cc1OC [Compound 74, 1-(2-Benzenesulfonylmethyl-benzyl)-3-(3,4-dimethoxy-phenyl)-1H-pyrrolo[2,3-b]pyridine]	< 10	< 10	≤ 10	< 10
COc1ccc(-c2cn(Cc3ccccc3)c3ncccc23)cc1OC [Compound 75, 1-Benzyl-3-(3,4-dimethoxy-phenyl)-1H-pyrrolo[2,3-b]pyridine]	< 10	< 10	≤ 10	< 10
